pKi: −log10 of the molar value.
How the values were obtained:
[1] = target: MK-801 binding site of the N-methyl-D-aspartate receptor (NMDAR); assay: NMDA receptor radioligand binding with [3H]MK-801; parameters: species or system Wistar rat; conditions: [3H]MK-801 displacement, Wistar rat brain (minus cerebellum); read-out: NMDAR Ki (95% CI)
Experimental: The binding affinities of disclosed compounds at the MK-801 binding site of the N-methyl-D-aspartate receptor (NMDAR) were determined in radioligand binding experiments (Table 13).
Radioligand Binding. Affinity of the test compounds for NMDAR was determined in radioligand binding experiments with [^3H]MK-801 by Eurofins Panlabs, Inc., using methods adapted from the literature (Javitt el al. 1987; Reynolds et al. 1989) and under the conditions described in Table 14.

[2] = Metabolic stability in human liver microsomes (HLM); assay type: in vitro ADME; conditions: 0.50 mg protein/mL, NADPH
Experimental: (§1) HLM Stability. Pooled HLM from adult male and female donors (Corning 452117) were used. Microsomal incubations were carried out in multi-well plates. Liver microsomal incubation medium consisted of PBS (100 mM, pH 7.4), MgCl2 (1 mM), and NADPH (1 nmM), with 0.50 mg of liver microsomal protein per mL. Control incubations were performed by replacing the NADPH-cofactor system with PBS. Test compounds (1 μM, final solvent concentration 1.0%) were incubated with microsomes at 37° C. with constant shaking, Six time points over 60 minutes were analyzed, with 60 μL aliquots of the reaction mixture being drawn at each time point. The reaction aliquots were stopped by adding 180 μL of cold (4° C.) acetonitrile containing 200 ng/mL tolbutamide and 200 ng/mL labetalol as internal standards (IS), followed by shaking for 10 minutes, and then protein sedimentation by centrifugation at 4,000 rpm for 20 minutes at 4° C. Supernatant samples (80 μL) were diluted with water (240 μL) and analyzed for parent compound remaining using a fit-for-purpose liquid chromatography-tandem mass spectrometry (LC-MS/MS) method.
(§2) Data Analysis. The elimination constant (kel), half-life (t1/2) and intrinsic clearance (Clint) were determined in a plot of […] versus time, using linear regression analysis.

[3] = Metabolic stability in mouse liver microsomes (MLM); assay type: in vitro ADME, CD-1 mice; conditions: male, CD-1, mouse, pooled mouse liver microsomes, pH 7.4, 1 μM compound, 0.50 mg protein/mL, NADPH
Experimental: as §1, with “MLM” for “HLM”, “from” for “from adult”, “CD-1 mice (XenoTech M1000)” for “and female donors (Corning 452117)”, “mM),” for “nmM),”, “shaking.” for “shaking,”
Data Analysis. The elimination constant (kel), half-life (t1/2) and intrinsic clearance (Clint) were determined in a plot of ln(AUC) versus […], using linear regression analysis.

[4] = Metabolic stability in rat liver microsomes (RLM); assay type: in vitro ADME, Sprague Dawley rats; conditions: male, Sprague Dawley, rat, pooled rat liver microsomes, pH 7.4, 1 μM compound, 0.50 mg protein/mL, NADPH
Experimental: as §1, with “RLM” for “HLM”, “from” for “from adult”, “Sprague Dawley rats (XenoTech R1000)” for “and female donors (Corning 452117)”, “mM),” for “nmM),”, “shaking.” for “shaking,”
as §2

[5] = Metabolic stability in dog liver microsomes (DLM); assay type: in vitro ADME, beagle dogs; conditions: male, beagle, dog, pooled dog liver microsomes, pH 7.4, 1 μM compound, 0.50 mg protein/mL, NADPH
Experimental: as §1, with “DLM” for “HLM”, “from” for “from adult”, “beagle dogs (XenoTech D1000)” for “and female donors (Corning 452117)”, “mM),” for “nmM),”, “shaking.” for “shaking,”, “([…]),” for “(IS),”
as §2

[6] = Metabolic stability in cynomolgus monkey liver microsomes (CLM); assay type: in vitro ADME, cynomolgus monkeys; conditions: male, cynomolgus monkey, pooled cynomolgus monkey liver microsomes, pH 7.4, 1 μM compound, 0.50 mg protein/mL, NADPH
Experimental: as §1, with “CLM” for “HLM”, “from” for “from adult”, “cynomolgus monkeys” for “and female donors”, “452413)” for “452117)”, “mM),” for “nmM),”, “shaking.” for “shaking,”
as §2

[7] = target: serotonin transporter (SERT) (Homo sapiens (Human), UniProt P31645); assay: SERT fluorescent substrate uptake inhibition in transfected cells; assay type: cell-based; conditions: stably transfected cells expressing SERT
Experimental: The ability of disclosed compounds to inhibit uptake of monoamines by the serotonin transporter (SERT) was measured using a fluorescent substrate uptake assay in transfected cells (Table 15). […] Considering that inhibitors of SERT are well known to have antidepressant and anxiolytic effects and are among the most commonly prescribed drugs for mood disorders (e.g. fluoxetine, sertraline, etc.), blockade of SERT by certain compounds of the present disclosure is expected to synergize with their NMDAR inhibition to increase therapeutic activity for treating depression and related disorders. […] Further, the ability to tune the ratio between SERT and NMDAR is useful to obtain the optimal therapeutic profile depending on the intended clinical indication.
Uptake Inhibition. The ability of test compounds to block monoamine uptake by SERT was determined using the Neurotransmitter Transporter Uptake Assay Kit manufactured by Molecular Devices (Cat #R8173). Briefly, stably transfected cells expressing SERT were grown and plated into 384-well plates at a concentration of 20,000 cells per well. Plates were then incubated for 16-20 h at 37° C. and 5% CO2. The medium was then aspirated and replaced with 25 μL of assay buffer (20 mM HEPES in HBSS, containing 0.1% BSA) containing the test compounds at the appropriate concentrations. Plates were then centrifuged at 300 rpm for 15 s and then incubated at 37° C. for 30 minutes. At this time, 25 μL of the proprietary fluorescent dye solution was added, the plates were incubated at 37° C. for 60 minutes, and then fluorescence was quantified on a plate reader (excitation wavelength=440 nm, emission wavelength=520 nm). The proprietary dye solution contains a mixture of 1) a fluorescent dye that mimics the endogenous substrate of SERT and is thereby actively transported to the intracellular compartment in the absence of an inhibitor and 2) a masking dye that inhibits the fluorescence of dye 1 in the extracellular compartment. Therefore, the overall fluorescence of the system increases as the fluorescent dye is transported into the cells.

CN[C@@]1(c2ccccc2Cl)CCCCC1=O [(R)-ketamine, reference compound]
pKi [1]: 5.66

CN[C@]1(c2ccccc2Cl)CCCCC1=O [(S)-ketamine, reference compound]
pKi [1]: 6.15

N[C@@]1(c2cccc(F)c2)CCCCC1=O [Compound 3R, (R)-2-amino-2-(3-fluorophenyl)cyclohexan-1-one]
Clint ([2]; 1 μM compound): <9.6 μL/min/m | half-life at 1 μM ([2]; both sexes, human, pooled human liver microsomes, pH 7.4, 1 μM compound): > 2.42 h | half-life at 1 μM [3]: 2 h | microsomal CLint at 1 μM [3]: 11.6 µL/min/mg | half-life at 1 μM [4]: > 2.42 h | microsomal CLint at 1 μM [4]: < 9.6 µL/min/mg | half-life at 1 μM [5]: 0.667 h | microsomal CLint at 1 μM [5]: 34.6 µL/min/mg | half-life at 1 μM [6]: 1.85 h | microsomal CLint at 1 μM [6]: 12.5 µL/min/mg | inhibition at 10 µM [7]: 1.75%

Source: US20240300886A1, “ARYLCYCLOHEXYLAMINE DERIVATIVES AND THEIR USE IN THE TREATMENT OF PSYCHIATRIC DISORDERS” (GILGAMESH PHARMACEUTICALS, INC., priority 2021, published 2024)
